Test results published in article PMC8537711, “Mechanistic Insights into Binding of Ligands with Thiazolidinedione Warhead to Human Histone Deacetylase 4” (Pharmaceuticals, 2021).
Each block holds one molecule with its values, some of them ahead of it.

What was measured:
cdHDAC4wt [1] = target: T1, cdHDAC4wt (Homo sapiens, UniProt P56524); test: Reversibility assay via rapid dilution; residence time from reversibility data; type: biochemical; conditions: first order dissociation assumed; read-out: RT (RD), residence time from rapid dilution
T1 construct: consists of 410 amino acids (human HDAC4 T648-T1057) and has a molecular weight of 44.2 kDa; His6-SUMO (cleaved yes); made in house; host or cells: E. coli (BL21) DE3 pLysS, pET14b vector
T1 sequence (P56524 648-1057): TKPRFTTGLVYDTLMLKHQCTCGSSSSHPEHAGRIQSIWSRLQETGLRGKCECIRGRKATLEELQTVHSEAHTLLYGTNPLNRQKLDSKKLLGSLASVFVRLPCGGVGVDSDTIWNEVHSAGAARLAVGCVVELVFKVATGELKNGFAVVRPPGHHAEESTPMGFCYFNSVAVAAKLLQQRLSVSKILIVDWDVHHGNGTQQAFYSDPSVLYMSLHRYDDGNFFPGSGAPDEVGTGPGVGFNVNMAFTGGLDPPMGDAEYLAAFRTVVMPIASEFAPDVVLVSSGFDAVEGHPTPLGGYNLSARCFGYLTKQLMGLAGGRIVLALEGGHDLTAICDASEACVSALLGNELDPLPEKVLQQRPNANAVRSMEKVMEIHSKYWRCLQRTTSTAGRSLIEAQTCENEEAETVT
Protocol: Rapid dilution was performed by diluting the incubated mixture 100-fold with substrate (Boc-Lys{TFA}-7-Amino-4-methylcoumarin (Bachem, Bubendorf, Switzerland)) with the final substrate concentration being 20 µM. […] A positive control without TZD ligand and a blank without enzyme and TZD ligand were also carried out. […] Once again the final substrate concentration was 20 µM. […] The deacetylated substrate was converted into a fluorescent product by the addition of 0.4 mg/mL trypsin (AppliChem, Darmstadt, Germany). The release of fluorogenic substrate was followed in a microplate reader (PherStar Plus, BMG Labtech, Ortenberg, Germany) at 450 nm (λEx = 350 nm) and correlated the positive control. […] All incubations steps were performed for 60 min at 30 °C and 450 rpm. The substrate was preheated to 30 °C before the rapid dilution step.
The reciprocal values for k equals the residence time of the respective TZD ligand (residence time = koff^−1), which can be compared with the residence times gained from association data.

[2] = target: T2, cdHDAC4wt (catalytic domain of human wild type histone deacetylase 4) (Homo sapiens, UniProt P56524); test: IC50 determination, enzyme activity assay with Boc-Lys{TFA}-AMC; type: biochemical; conditions: mean ± SD, N = 3
T2 construct: consists of 410 amino acids (human HDAC4 T648-T1057) and has a molecular weight of 44.2 kDa; His6-SUMO (cleaved yes); made in house; host or cells: E. coli (BL21) DE3 pLysS, pET14b vector
T2 sequence (P56524 648-1057): as above
Protocol: Afterwards the enzymatic reaction was initiated by the addition of 20 µM Boc-Lys{TFA}-7-Amino-4-methylcoumarin (Bachem, Bubendorf, Switzerland) as substrate. […] The deacetylated substrate was converted into a fluorescent product by the addition of 0.4 mg/mL trypsin (AppliChem, Darmstadt, Germany). The release of fluorogenic substrate was followed in a microplate reader (PherStar Plus, BMG Labtech, Ortenberg, Germany) at 450 nm (λEx = 350 nm) and correlated to enzyme activity.
All incubations steps were performed for 60 min at 30 °C and 450 rpm.

cdHDAC4wt [3] = target: T1, cdHDAC4wt; test: Association kinetics (semi continuous enzyme activity assay, kobs vs inhibitor concentration); type: biochemical; conditions: for residence time: 1/koff (two step) or 1/k−3 (one step), read-out: RT (KF), residence time from kinetic fit; for forward isomerization rate constant (k2) / koff: isomerization rate; for koff: y-axis intercept; for Ki: two step induced fit model, read-out: K1 (equilibrium constant of initial encounter complex); for y-intercept of kobs plot (k−3): linear regression; for y-intercept of kobs plot (k−3) / k3 / k−3: one step model; for k3: slope of kobs vs ligand concentration; for k−3: y-intercept
Protocol: A serial dilution of inhibitor beginning at 10-fold of respective IC50-value in assay buffer (25 mM Tris-HCl, pH 8.0, 75 mM KCl, 0.001% Pluronic F-127) was made in a black 96-well microtiter half-area plate (Greiner, Kremsmuenster, Austria). The dilutions were added to 3 nM cdHDAC4wt. Shortly after, the reaction was initiated by adding 20 µM Boc-Lys{TFA}-7-Amino-4-methylcoumarin (Bachem, Bubendorf, Switzerland) as substrate. […] Finally 0.4 mg/mL trypsin was added to split the deacetylated substrate in the fluorescent product which was measured at 450 nm (λEx = 350 nm) (PherStar Plus, BMG Labtech, Ortenberg, Germany). […] The standardized RFUs were plotted against the incubation time. […] Due to this knowledge the data were fitted via non linear regression with GraphPad Prism program to the following equation by Copeland [27]:(2) Y=νs·t+νi−νs/kobs·(1−e^(−kobs·t))+d where vi is the initial slope, vs is the second lower slope, kobs is the respective rate constant, t is time and d the correction for possible data offset.
Afterwards kobs values were plotted against their respective inhibitor concentration.

- melting point: 260 °C (dec.)
Compound: Cc1cccc2sc(NC(=O)CN3C(=O)SC(=Cc4ccccn4)C3=O)nc12 [PB2, 2-(2,4-dioxo-5-(pyridin-2-ylmethylene)thiazolidin-3-yl)-N-(4-methylbenzo[d]thiazol-2-yl)acetamide]

- melting point: 273 °C (dec.)
Compound: O=C(CN1C(=O)SC(=Cc2ccccn2)C1=O)Nc1nc2c(Cl)cccc2s1 [PB4, N-(4-chlorobenzo[d]thiazol-2-yl)-2-(2,4-dioxo-5-(pyridin-2-ylmethylene)thiazolidin-3-yl)acetamide]

- melting point: 294 °C (dec.)
Compound: O=C(CN1C(=O)SC(=Cc2ccccn2)C1=O)Nc1nc2c(F)cc(F)cc2s1 [PB5, N-(4,6-difluorobenzo[d]thiazol-2-yl)-2-(2,4-dioxo-5-(pyridin-2-ylmethylene)thiazolidin-3-yl)acetamide]

- melting point: 295 °C (dec.)
Compound: Cc1cc2nc(NC(=O)CN3C(=O)SC(=Cc4ccccn4)C3=O)sc2cc1C [PB6, N-(5,6-dimethylbenzo[d]thiazol-2-yl)-2-(2,4-dioxo-5-(pyridin-2-ylmethylene)thiazolidin-3-yl)acetamide]

- melting point: 220 to 222 °C
Compound: COc1cccc2sc(NC(=O)CN3C(=O)SC(=Cc4ccccn4)C3=O)nc12 [PB7, 2-(2,4-dioxo-5-(pyridin-2-ylmethylene)thiazolidin-3-yl)-N-(4-methoxybenzo[d]thiazol-2-yl)acetamide]

- melting point: 230 °C (dec.)
Compound: CCOc1ccc2nc(NC(=O)CN3C(=O)SC(=Cc4ccccn4)C3=O)sc2c1 [PB8, 2-(2,4-dioxo-5-(pyridin-2-ylmethylene)thiazolidin-3-yl)-N-(6-ethoxybenzo[d]thiazol-2-yl)acetamide]

- melting point: 265 °C (dec.)
Compound: O=C(CN1C(=O)SC(=Cc2ccccn2)C1=O)Nc1nc2ccc(F)cc2s1 [PB9, 2-(2,4-dioxo-5-(pyridin-2-ylmethylene)thiazolidin-3-yl)-N-(6-fluorobenzo[d]thiazol-2-yl)acetamide]

The remaining lines, values behind:

Compound: O=C1NC(=O)/C(=C/c2ccc(OCC(=O)N3N=C(c4ccccc4)CC3c3ccc(C(F)(F)F)cc3)cc2)S1 (stereo not shown) [4d]
- residence time (cdHDAC4wt [1]): 23 ± 6 min
- IC50 [2]: 790 ± 40 nM
- residence time (cdHDAC4wt [3]): 26 ± 11 min
- forward isomerization rate constant (k2) (cdHDAC4wt [3]; two step model): 0.008 ± 0.001 s⁻¹
- koff (cdHDAC4wt [3]; two step model): 0.0006 ± 0.0003 s⁻¹
- Ki (cdHDAC4wt [3]): 1700 ± 700 nM
- kon (cdHDAC4wt [3]; two step model): (8 ± 1) × 10^−3 s^−1

Compound: O=C(COc1ccc2cc(/C=C3\SC(=O)NC3=O)ccc2c1)Nc1ccc(C(F)(F)F)cc1 [7i]
- residence time (cdHDAC4wt [1]): 17 ± 3 min
- IC50 [2]: 1300 ± 100 nM
- residence time (cdHDAC4wt [3]): 9.3 ± 0.5 min
- y-intercept of kobs plot (k−3) (cdHDAC4wt [3]): 0.0018 s⁻¹
- k3 (cdHDAC4wt [3]): 100 ± 30 M⁻¹ s⁻¹
- k−3 (cdHDAC4wt [3]): 0.18 ± 0.01 s^−1 (×10^−2)

Compound: O=C(COc1ccc2cc(/C=C3\SC(=O)NC3=O)ccc2c1)Nc1ncccc1F [7s]
- residence time (cdHDAC4wt [1]): 11 ± 1 min
- IC50 [2]: 780 ± 80 nM
- residence time (cdHDAC4wt [3]): 10 ± 1 min
- y-intercept of kobs plot (k−3) (cdHDAC4wt [3]): 0.0016 s⁻¹
- k3 (cdHDAC4wt [3]): 210 ± 40 M⁻¹ s⁻¹
- k−3 (cdHDAC4wt [3]): 0.16 ± 0.02 s^−1 (×10^−2)

Compound: O=C1NC(=O)/C(=C/c2ccc3cc(OCC(=O)N4N=C(c5ccccc5)CC4c4ccccc4)ccc3c2)S1 (stereo not shown) [8a]
- residence time (cdHDAC4wt [1]): 19 ± 2 min
- IC50 [2]: 770 ± 90 nM
- residence time (cdHDAC4wt [3]): 11 ± 4 min
- forward isomerization rate constant (k2) (cdHDAC4wt [3]; two step model): 0.0049 ± 0.0014 s⁻¹
- koff (cdHDAC4wt [3]; two step model): 0.0015 ± 0.0006 s⁻¹
- Ki (cdHDAC4wt [3]): 2400 ± 1800 nM

Compound: Cc1ccc(C=C2SC(=O)N(CC(=O)Nc3nc4c(Cl)cccc4s3)C2=O)cc1 [GB2, N-(4-chlorobenzo[d]thiazol-2-yl)-2-(5-(4-methylbenzylidene)-2,4-dioxothiazolidin-3-yl)acetamide]
- melting point: 292 to 294 °C

Compound: Cc1ccc(C=C2SC(=O)N(CC(=O)Nc3nc4c(Cl)cccc4s3)C2=O)cc1C [GB6, N-(4-chlorobenzo[d]thiazol-2-yl)-2-(5-(3,4-dimethylbenzylidene)-2,4-dioxothiazolidin-3-yl)acetamide]
- melting point: 214 to 216 °C

Compound: COc1cccc2sc(NC(=O)CN3C(=O)SC(=Cc4ccccc4)C3=O)nc12 [GB8, 2-(5-benzylidene-2,4-dioxothiazolidin-3-yl)-N-(4-methoxybenzo[d]thiazol-2-yl)acetamide]
- melting point: 157 to 159 °C

Compound: Cc1cccc2sc(NC(=O)CN3C(=O)SC(=Cc4ccc(F)cc4)C3=O)nc12 [GB10, 2-(5-(4-fluorobenzylidene)-2,4-dioxothiazolidin-3-yl)-N-(4-methylbenzo[d]thiazol-2-yl)acetamide]
- melting point: 225 to 227 °C

Compound: O=C(CN1C(=O)SC(=Cc2ccccc2)C1=O)Nc1nc2c(F)cc(F)cc2s1 [GB12, 2-(5-benzylidene-2,4-dioxothiazolidin-3-yl)-N-(4,6-difluorobenzo[d]thiazol-2-yl)acetamide]
- melting point: 280 to 282 °C

Compound: Cc1ccc2nc(NC(=O)CN3C(=O)SC(=Cc4ccc(F)cc4F)C3=O)sc2c1 [GB13, 2-(5-(2,4-difluorobenzylidene)-2,4-dioxothiazolidin-3-yl)-N-(6-methylbenzo[d]thiazol-2-yl)acetamide]
- melting point: 266 to 268 °C

Compound: Cc1ccc(C=C2SC(=O)N(CC(=O)Nc3nc4c(F)cc(F)cc4s3)C2=O)cc1 [GB19, N-(4,6-difluorobenzo[d]thiazol-2-yl)-2-(5-(4-methylbenzylidene)-2,4-dioxothiazolidin-3-yl)acetamide]
- melting point: 295 to 297 °C

Compound: Cc1ccc(C=C2SC(=O)N(CC(=O)Nc3nc4c(F)cc(F)cc4s3)C2=O)cc1C [GB20, N-(4,6-difluorobenzo[d]thiazol-2-yl)-2-(5-(3,4-dimethylbenzylidene)-2,4-dioxothiazolidin-3-yl)acetamide]
- melting point: 271 to 273 °C

Compound: Cc1cc2nc(NC(=O)CN3C(=O)SC(=Cc4ccccc4)C3=O)sc2cc1C [GB22, 2-(5-benzylidene-2,4-dioxothiazolidin-3-yl)-N-(5,6-dimethylbenzo[d]thiazol-2-yl)acetamide]
- melting point: 276 to 278 °C

Compound: Cc1cc2nc(NC(=O)CN3C(=O)SC(=Cc4ccc(F)cc4)C3=O)sc2cc1C [GB25, N-(5,6-dimethylbenzo[d]thiazol-2-yl)-2-(5-(4-fluorobenzylidene)-2,4-dioxothiazolidin-3-yl)acetamide]
- melting point: 298 to 299 °C

Compound: Cc1ccc(C=C2SC(=O)N(CC(=O)Nc3nc4cc(C)c(C)cc4s3)C2=O)cc1C [GB26, N-(5,6-dimethylbenzo[d]thiazol-2-yl)-2-(5-(3,4-dimethylbenzylidene)-2,4-dioxothiazolidin-3-yl)acetamide]
- melting point: 284 to 286 °C

Compound: O=C(CN1C(=O)SC(=Cc2ccc(F)cc2F)C1=O)Nc1nc2c(F)cc(F)cc2s1 [GB29, N-(4,6-difluorobenzo[d]thiazol-2-yl)-2-(5-(2,4-difluorobenzylidene)-2,4-dioxothiazolidin-3-yl)acetamide]
- melting point: 274 to 276 °C

Compound: O=C(CN1C(=O)SC(=Cc2ccccc2)C1=O)Nc1nc2c(F)cccc2s1 [GB30, 2-(5-benzylidene-2,4-dioxothiazolidin-3-yl)-N-(4-fluorobenzo[d]thiazol-2-yl)acetamide]
- melting point: 272 to 274 °C

Compound: Cc1ccc2nc(NC(=O)CN3C(=O)SC(=Cc4ccc(Br)cc4)C3=O)sc2c1 [GB31, 2-(5-(4-bromobenzylidene)-2,4-dioxothiazolidin-3-yl)-N-(6-methylbenzo[d]thiazol-2-yl)acetamide]
- melting point: 292 to 294 °C

Compound: O=C(CN1C(=O)SC(=Cc2ccc(Cl)cc2)C1=O)Nc1nc2ccc(F)cc2s1 [GB33, 2-(5-(4-chlorobenzylidene)-2,4-dioxothiazolidin-3-yl)-N-(6-fluorobenzo[d]thiazol-2-yl)acetamide]
- melting point: 290 to 292 °C

Compound: O=C(CN1C(=O)SC(=Cc2ccc(F)cc2)C1=O)Nc1nc2ccc(F)cc2s1 [GB34, N-(6-fluorobenzo[d]thiazol-2-yl)-2-(5-(4-fluorobenzylidene)-2,4-dioxothiazolidin-3-yl)acetamide]
- melting point: 260 to 262 °C

Compound: COc1cccc2sc(NC(=O)CN3C(=O)SC(=Cc4ccc(F)cc4)C3=O)nc12 [GB35, 2-(5-(4-fluorobenzylidene)-2,4-dioxothiazolidin-3-yl)-N-(4-methoxybenzo[d]thiazol-2-yl)acetamide]
- melting point: 172 °C
